Where two headings read alike, the source gives them in different places.
Experiments:
Giant foxtail (GIFT) = experiment: whole plant or invertebrate; type: in vivo; conditions: […], PPI
Shattercane (SHCA) = type: in vivo; conditions: […]
Corn [1] = conditions: […], PPI
Velvetleaf (VELE) [2] = experiment: whole plant or invertebrate; type: in vivo, Abutilon theophrasti; conditions: […], PPI
Velvetleaf (VELE) [3] = type: in vivo, Abutilon theophrasti; conditions: […]
Corn [4] = conditions: […]
[5] = observed 9 days later (Table 29)
[6] = observed 9 days later (Table 30)
[7] = observed 8 days later (Table 33)

SMILES | % Inhibition GIFT (Giant foxtail (GIFT); 13 days after PPI (Table 31)) | % Inhibition SHCA (Shattercane (SHCA); [5]) | % Inhibition SHCA (Shattercane (SHCA); [6]) | % Inhibition Corn (Corn [1]; 13 days after PPI (Table 31)) | % Inhibition VELE (Velvetleaf (VELE) [2]; 13 days after PPI (Table 31)) | % Inhibition VELE (Velvetleaf (VELE) [3]; [5]) | % Inhibition VELE (Velvetleaf (VELE) [3]; [6]) | % Inhibition Corn (Corn [4]; [5]) | % Inhibition Corn (Corn [4]; [6]) | % Inhibition GIFT (Giant foxtail (GIFT); 14 days after PPI (Table 34)) | % Inhibition SHCA (Shattercane (SHCA); [7]) | % Inhibition Corn (Corn [1]; 14 days after PPI (Table 34)) | % Inhibition VELE (Velvetleaf (VELE) [2]; 14 days after PPI (Table 34)) | % Inhibition VELE (Velvetleaf (VELE) [3]; [7]) | % Inhibition Corn (Corn [4]; [7])
O=C(C(Cl)Cl)N1CCN(C(=O)C(Cl)Cl)CC1 [compound 3] | 75% | 70% | 40% | 55% | 95% | 95% | 70% | 35% | 60% |  |  |  |  |  | 
O=C(C(Cl)Cl)N1CCCC12CCCC2 [compound 19] | 75% | 80% | 30% | 55% | 80% | 95% | 70% | 20% | 35% | 65% | 30% | 35% | 90% | 70% | 55%
CC1(C)OC(c2cccs2)CN1C(=O)C(Cl)Cl (stereo not drawn) [compound 22] | 70% | 65% | 25% | 45% | 80% | 85% | 75% | 20% | 40% |  |  |  |  |  | 
CC1Cc2ccccc2C(C)N1C(=O)C(Cl)Cl (stereo not drawn) [compound 26] | 75% | 70% | 35% | 65% | 80% | 90% | 75% | 40% | 50% |  |  |  |  |  | 
CC1(C)OC(c2cccnc2)CN1C(=O)C(Cl)Cl (stereo not drawn) [compound 27] | 75% | 75% | 30% | 30% | 85% | 85% | 75% | 25% | 30% |  |  |  |  |  | 
CC1(C)OC(Cc2ccccc2)CN1C(=O)C(Cl)Cl (stereo not drawn) [compound 34] | 75% | 70% | 25% | 35% | 80% | 85% | 70% | 15% | 35% |  |  |  |  |  | 
Cn1cccc1C1CN(C(=O)C(Cl)Cl)C(C)(C)O1 (stereo not drawn) [compound 35] | 70% | 75% | 30% | 40% | 80% | 90% | 65% | 20% | 35% |  |  |  |  |  | 
O=C(C(Cl)Cl)N1CC(c2ccco2)OC1c1ccccc1 (stereo not drawn) [compound 36] | 75% | 75% | 35% | 60% | 90% | 100% | 80% | 45% | 45% |  |  |  |  |  | 
C[n+]1cccc(C2CN(C(=O)C(Cl)Cl)C(C)(C)O2)c1 (stereo not drawn) [compound 37] | 80% | 80% | 35% | 60% | 85% | 90% | 75% | 65% | 50% |  |  |  |  |  | 
CC1(C)OC(c2cc3ccccc3o2)CN1C(=O)C(Cl)Cl (stereo not drawn) [compound 38] | 70% | 80% | 25% | 50% | 85% | 95% | 70% | 20% | 45% |  |  |  |  |  | 
